{
  "source": "patent US20260191818A1",
  "about": "(University of South Carolina, priority 2022, published 2026)",
  "key": {"CD2F1 mice": {"tested_on": "CD2F1 mice", "settings": "mouse, in vivo; cited from earlier work"}, "C26 model of cachexia": {"tested_on": "C26 model of cachexia", "settings": "Quercetin 35 mg/kg; cited from earlier work"}, "C26 tumor-bearing mice": {"tested_on": "C26 tumor-bearing mice", "test": "C26 tumor-bearing mice given 5FU (cancer and chemotherapy-induced cachexia): body, tumor and tissue weights, food intake", "format": "in vivo, CD2F1 mice", "procedure": "Male (n=20) CD2F1 (CD2F1) hybrid mice were purchased from Charles River Laboratory (Raleigh, NC) at 10 weeks of age. Mice arrived at our facilities and were given AlN76 diet and allowed to acclimate to the new facilities and purified diet for 4 weeks. Mice were kept in ventilated cages (5 per cage), on a 12:12 h light/dark cycle, in a humidity and temperature control room (~22° C.) and given ad libitum access to water and food. Animal handling and experiments were performed to minimize pain and discomfort. […] Control mice were non-tumor-bearing mice given PBS i.p. and propylene glycol p.o. as vehicle controls. Body weights were measured daily. Food weights per cage were measured daily and average food intake was calculated by the difference in food weight between days. […] Hind limb muscles and select organs were excised, weighed, and snap frozen in liquid nitrogen while mice were under sedation (2% Isoflurane, 2 L/min O2). All procedures involving animals were reviewed and approved by the Institutional Animal Care and Usage Committee (IACUC) at the University of South Carolina in accordance with the American Association for Laboratory Animal Science. C26 (colon 26 adenocarcinoma) cells were gifted from Dr. Andrea Bonetto's laboratory and grown in complete DMEM (10% fetal bovine serum, 1% penicillin/streptomycin). Cells were split at 70% confluency and passage 3 was used for cell implantation. On Day 0, CD2F1 mice were given a subcutaneous injection of 1×10^6 C26 cells in the subscapular area as previously described. See, Bonetto, A., et al., The Colon-26 Carcinoma Tumor-bearing Mouse as a Model for the Study of Cancer Cachexia. J Vis Exp, 2016(117). Tumors were palpable at Day 8 in all C26 tumor-bearing mice. […] VWR; CAS #:51-21-8) was solubilized in warmed phosphate buffered saline (PBS) at 3.0 mg/mL, sterile filtered with a 0.2 μm filter and administered at the beginning of the light cycle (0700) via i.p. injection to mice with established tumor (day 11 after C26 implantation). […] Cancer Biol Ther, 2022. 23(1): p. 1-15; and […]., et al., The Acute Effects of 5 Fluorouracil on Skeletal Muscle Resident and Infiltrating Immune Cells in Mice. […] Data were analyzed using Prism 8 statistical software (GraphPad Software, CA, USA). […] The healthy controls are shown as a reference point but were not included in statistical analysis. Additionally, the C26 alone group was not included in analysis, but is shown as a reference point for tumor growth without chemotherapy intervention. Data are presented as the mean±SEM and the level of significance was set up at p<0.05."}, "[1]": {"tested_on": "ApcMin/+ model of intestinal cancer", "settings": "25 mg/kg of quercetin; cited from earlier work"}, "PPARG, PPARGCA1": {"tested_on": "PPARG, PPARGCA1", "test": "RT-PCR of rectus femoris, mitochondrial biogenesis genes", "format": "in vivo, CD2F1 mice", "settings": "C26+5FU+Quer vs C26+5FU", "experimental": "RNA from the proximal portion of the RF was isolated as previously described. […] Briefly, RNA was extracted from the RF using the […] procedure (Life Technologies, Gibco-BRL, Carlsbad, CA). RNA sample quality and quantities were verified using a Nanodrop One Microvolume UV-Vis Spectrophotometer (Thermo Fisher Scientific, Waltham, MA). […] Quantitative RT-PCR analysis was carried out as per the manufacturer's instructions (Applied Biosystems) using Taq-Man Gene Expression Assays."}, "[2]": {"tested_on": "tibialis anterior (TA) muscle", "test": "Muscle histology (H&E), myofibrillar cross sectional area of tibialis anterior", "format": "in vivo, CD2F1 mice", "settings": "C26+5FU+Quer vs C26+5FU", "procedure": "Skeletal muscle histology was assessed via hematoxylin and eosin (H&E) staining on tibialis anterior (TA) muscle cryosections. The TA muscle was dissected, snap-frozen in liquid nitrogen with Optimum Cutting Temperature (OCT) embedding medium placed on the most distal portion of the TA and stored in −80° C. Tissue was acclimated to the cryostat temperature (−24° C.) prior to collection of transverse sections ([…]) on Fisherbrand Superfrost Plus Microscope Slides. TA tissue slides were then stored at −80° C. until staining. Slides were fixed in ice-cold acetone and H&E staining was completed as previously described. […] Cancer Biol Ther, 2022. 23(1); and VanderVeen, B. N., et al., 5-Fluorouracil disrupts skeletal muscle immune cells and impairs skeletal muscle repair and remodeling. J Appl Physiol (1985), 2022. 133(4): p. 834-849. Images of H&E stains were taken at 20× and 40× magnification using a Keyence BZX800 microscope. Muscle cross sectional area (mCSA) was measured using ImageJ by measuring the circumference of 500-700 myofibers/mouse (n=3-5/group)."}, "P62, LC3B, Parkin, BNIP3": {"tested_on": "P62, LC3B, Parkin, BNIP3", "test": "Western blot of rectus femoris, autophagy and mitophagy proteins", "format": "in vivo, CD2F1 mice", "settings": "C26+5FU+Quer vs C26+5FU", "procedure": "Protein isolation and western blotting was completed similar to what has been previously described. See, Sougiannis, A. T., et al., Impact of weight loss and partial weight regain on immune cell and inflammatory markers in adipose tissue in male mice. J Appl Physiol (1985), 2020. 129(4): p. 909-919. The rectus femoris (RF) was teased from the other quadriceps muscles, cut in half (proximal/distal), snap frozen in liquid nitrogen, and stored at −80° C. The distal RF was homogenized in Mueller Buffer (50 mM Hepes, 0.1% Triton-x, 4 mM EGTA, 10 mM EDTA, 15 mM Na4P207, 100 mM β-glycerophosphate, 25 mM NaF, and 5 mM NaVO4, with protease inhibitor cocktail) using a bead homogenizer at 4° C. Samples were centrifuged and the supernatant was collected and diluted with a diluent buffer (50% Glycerol, 50 mM Na4P2O7, 2.5 mM EGTA, and 1 mM β-mercaptoethanol with protease inhibitor cocktail). […] Between 10-50 μg of muscle protein homogenate was separated via SDS-PAGE and transferred to a PVDF membrane. Membranes were stained with Ponceau Red to confirm even loading and transfer efficiency. Membranes were then washed with tris buffered saline with 0.1% Tween (TBST) before blocking for 1 h at room temp with 5% milk TBST. Membranes were then incubated in primary anti-body (Table 1, see FIG. 8) overnight at 4° C. under gentle agitation. Membranes were then washed 3×5 min and incubated with the appropriate (anti-mouse or rabbit) HRP-linked secondary in 5% milk TBST for 1 h at room temperature. After a final 3×5 min wash membranes were incubated in chemiluminescent HRP substrate before visualization with a Syngene G:box. Images were then scanned, and relative protein expression was determined with ImageJ. Investigator was blinded to sample loading scheme and images were cropped after analysis for representation. All samples (full Ns) were run together for each protein. Dotted lines indicate where gels were cropped."}},
  "data": [
    {"smiles": "O=c1c(O)c(-c2ccc(O)c(O)c2)oc2cc(O)cc(O)c12", "note": "[quercetin, 3,4,5,7-pentahydroxylflavone]", "values": [
      {"measurement": "sub-chronic toxicity", "setting": "CD2F1 mice", "value": "no deleterious effects or toxicities"},
      {"measurement": "muscle mass loss", "setting": "C26 model of cachexia", "value": "protected against muscle mass loss"},
      {"measurement": "greater EDL weight", "setting": "C26 tumor-bearing mice; C26+5FU+Quer vs C26+5FU, p=0.039", "value": 23.7, "unit": "%"},
      {"measurement": "greater gonadal fat pad weight", "setting": "C26 tumor-bearing mice; C26+5FU+Quer vs C26+5FU, p=0.04", "value": 50.0, "unit": "%"},
      {"measurement": "greater gastrocnemius weight", "setting": "C26 tumor-bearing mice; C26+5FU+Quer vs C26+5FU, p=0.055", "value": 13.9, "unit": "%"},
      {"measurement": "other measured muscle weights", "setting": "C26 tumor-bearing mice; C26+5FU+Quer vs C26+5FU, p=0.09-0.15", "value": "did not achieve statistically significant differences"},
      {"measurement": "greater RF (rectus femoris) weight", "setting": "C26 tumor-bearing mice; C26+5FU+Quer vs C26+5FU, quercetin 50 mg/kg p.o., p=0.02", "value": 14.4, "unit": "%"},
      {"measurement": "impact on body weight loss", "setting": "C26 tumor-bearing mice; mice given 5FU 30 mg/kg lean mass i.p., quercetin 50 mg/kg p.o. vs propylene glycol, daily from Day 11", "value": "no apparent impact"},
      {"measurement": "muscle mass and strength", "setting": "[1]", "value": "preserved muscle mass and strength"},
      {"measurement": "change in gene expression of PPARG", "setting": "PPARG, PPARGCA1; p=0.04", "value": "−64.0", "unit": "%"},
      {"measurement": "change in PPARGCA1 gene expression", "setting": "PPARG, PPARGCA1; without changes, p=0.36", "value": 10.3, "unit": "%"},
      {"measurement": "myofibrillar fiber size distribution", "setting": "[2]", "value": "rightward shift"},
      {"measurement": "increase in TA mean CSA", "setting": "[2]; H&E", "value": 32.0, "unit": "%"},
      {"measurement": "change in LC3b expression", "setting": "P62, LC3B, Parkin, BNIP3; no observed difference, p=0.2", "value": "−33.4", "unit": "%"},
      {"measurement": "change in P62 expression", "setting": "P62, LC3B, Parkin, BNIP3; no observed difference, p=0.20", "value": "−33.4", "unit": "%"},
      {"measurement": "change in BNIP3 expression", "setting": "P62, LC3B, Parkin, BNIP3; significant increase, p=0.024", "value": 555, "unit": "%"}
    ]}
  ]
}
